Where no end group is shown, it is not given here.
What was measured:
IEC-6 cells = test: in vitro IEC-6 wounding/cell migration assay; type: cell-based; details: for relative activity (wound repair, IEC-6 cells across the wound border): 0.1-1.0 mg/ml dimer, 19 hours, serum-deprived media with or without hCGP 2 mg/ml
Description: Biological activity of recombinant trefoil peptide fragments was measured using an in vitro wound/migration assay as described by Dignass et al. (J. Clin. Invest. 94:376-383 (1994)). Briefly, primary intestinal epithelial, IEC-6 cells (at passage 17) were grown in sterile Dulbecco's Modified Eagle Medium (DMEM) supplemented with 5% FCS (v/v), 5 μg/μl insulin, and 10 mM penicillin/streptomycin/L-glutamine (PSG). Cells were grown to confluence in a humidified chamber at 37° C. and 5% CO2.
Prior to performing biopotency assays, the media was removed, washed 2× with 0.1% FCS/DMEM and serum-starved overnight in 0.1% FCS/DMEM at 37° C. and 5% CO2. Two simulated wounds per well were made by scoring the cells with a razor blade. The cells were then washed once with 0.1%FCS/DMEM. Samples of hITF15-73 and its fragments and isoforms were produced in Pichia pastoris and purified as described above. The TDCP mixture was then added to separate plates at a concentration of 100 μg per milliliter of 0.1% FCS/DMEM per fragment. A positive control using the known mitogen, transforming growth factor-β (TGF-β), was included at 20 ng/mL media and a negative control of just 0.1% FCS/DMEM were incorporated for later analysis. Cells were incubated for 24 hours at 37° C. At 24 hours post incubation, cells were washed with ice-cold PBS and fixed in cold MeOH. Each plate was then assayed for motility by counting the number of cells crossing the wound edge.
Biological activity was tested using the in vitro IEC-6 wounding/cell migration assay describe above with the following modifications. IEC-6 cells were cultured to confluence in 24-well multiwell plates and were wounded once with a pipette to yield a 4-5 mm×1 cm wound in each well. Cells were washed and maintained in serum-deprived media, with or without human colonic glycoprotein (hCGP; 2 mg/ml), in the presence of 0.1-1.0 mg/ml of one of the three recombinant hITF dimers identified above for 19 hours. Bovine serum albumin (0.1-1.0 mg/ml) was added instead of an hITF dimer. Wound repair was determined by counting the number of IEC-6 cells across the wound border using a 100× photomicrograph (inverted Nikon Diaphor TMS, Nikon N6006 camera).

[1] = isoelectric point (pI) of ITF fragments; type: physicochemical
From the text: We have observed that production of trefoil peptides in Pichia pastoris leads to post-translational events which include proteolytic cleavage and dipeptide addition. […] Our studies have shown that longer fermentation times results in increased hITF21-72 yields. We also observed that the optimal yield of the ITF21-72 and ITF21-73 occurs at a pH of ˜5; whereas the optimal yield of the […] and […] occurs at pH 6.0-6.5. As the pI of ITF15-73 and ITF21-72 is 5.1 and 6.9 respectively, separation of the two products can be achieved by ion-exchange chromatography.

[2] = stated as well known; cited from earlier work

EA-hITF15-73 homodimer: dimer of EA-hITF15-73, 13547 Da (EAEEYVGLSANQCAVPAKDRVDCGYPHVTPKECNNRGCCFDSRIPGVPWCFKPLQEAECTF; also: homodimer; UniProt Q07654 22-80, looked up, fragment)
relative activity (wound repair, IEC-6 cells across the wound border) (IEC-6 cells): 85.3%

hITF15-73 homodimer: recombinant hITF15-73 dimer, 13146 Da (EEYVGLSANQCAVPAKDRVDCGYPHVTPKECNNRGCCFDSRIPGVPWCFKPLQEAECTF; cysteine pairing not given here; also: homodimer; UniProt Q07654 22-80, looked up, fragment)
relative activity (wound repair, IEC-6 cells across the wound border) (IEC-6 cells): 100%

hITF15-73/EA-hITF15-73 heterodimer: dimer of hITF15-73 and EA-hITF15-73, 13347 Da (EEYVGLSANQCAVPAKDRVDCGYPHVTPKECNNRGCCFDSRIPGVPWCFKPLQEAECTF; cysteine pairing not given here; also: heterodimer of hITF15-73 and EA-hITF15-73, one chain has N-terminal Glu-Ala extension; UniProt Q07654 22-80, looked up, fragment)
relative activity (wound repair, IEC-6 cells across the wound border) (IEC-6 cells): 95.6%

hITF15-73: recombinant trefoil peptide fragment, amino acid residues 15-73 of human intestinal trefoil factor, produced in Pichia pastoris (EEYVGLSANQCAVPAKDRVDCGYPHVTPKECNNRGCCFDSRIPGVPWCFKPLQEAECTF; UniProt Q07654 22-80, looked up, fragment)
increase in IEC-6 cells migrating over the wound edge, compared to BSA control (IEC-6 cells; 1 mg/ml, 19 hour incubation, versus 1 mg/ml BSA (FIG. 12)): ~3 fold | pI [1]: 5.1

B1: hITF: human intestinal trefoil factor (hITF; also known as TFF3) (protein, listed as Homo sapiens)
chain: MLGLVLALLSSSSAEEYVGLSANQCAVPAKDRVDCGYPHVTPKECNNRGCCFDSRIPGVPWCFKPLQEAECTF
stability at stomach pH [2]: stable

— patent US20040171544A1, “Trefoil domain-containing polypeptides and uses thereof” (priority 2001, published 2004)
